Source: EP0134302A1, “Pharmaceutical compositions for treating resistant bacteria including anaerobes” (Bristol-Myers Company, priority 1983, dated 1985)
Values after ≈ are worked out from the molar mass of the structure shown. Values joined by “and” are separate entries in the source; they are usually repeats but may differ in a detail not shown here. Equal entries are not always repeated. Where two headings read alike, the source gives them in different places.

Legend:
[1] = Blood concentrations of BL-P 2013 after oral administration; type: in vivo; conditions: mice; oral administration of doses of 25 to 100 mg./kg. of body weight
[2] = tested on: S. aureus; assay: microbe, parasite or virus in culture; type: cell-based
[3] = tested on: Enterobacter aerogenes; assay: microbe, parasite or virus in culture; type: cell-based; conditions: Klebsiella aerogenes
[4] = tested on: Enterobacter cloacae; assay: microbe, parasite or virus in culture; type: cell-based
[5] = tested on: C. freundii; assay: microbe, parasite or virus in culture; type: cell-based
[6] = tested on: Serratia marcescens; assay: microbe, parasite or virus in culture; type: cell-based
[7] = tested on: P. aeruginosa; assay: microbe, parasite or virus in culture; type: cell-based; conditions: Pseudomonas aeruginosa
[8] = tested on: Bacteroides fragilis; assay: microbe, parasite or virus in culture; type: cell-based
[9] = tested on: Clostridium perfringens; assay: microbe, parasite or virus in culture; type: cell-based
[10] = tested on: Morganella morganii; assay: microbe, parasite or virus in culture; type: cell-based
[11] = tested on: Proteus vulgaris; assay: microbe, parasite or virus in culture; type: cell-based
[12] = tested on: Providencia rettgeri; assay: microbe, parasite or virus in culture; type: cell-based
[13] = tested on: Providencia stuartii; assay: microbe, parasite or virus in culture; type: cell-based
[14] = tested on: B. fragilis; conditions: cited from earlier work
[15] = Table 1, C. perfringens, 3 strains (first group), geometric mean, 2 tests, BL-P 2013 as K salt
[16] = Table 1, C. perfringens, 3 strains (second group), geometric mean, 2 tests, BL-P 2013 as K salt
[17] = Table 1, C. perfringens, 8 strains, geometric mean, 2 tests, BL-P 2013 as K salt
[18] = Table 3, C. perfringens, 1 strain
[19] = Table 3, C. perfringens, 2 strains, geometric mean
[20] = Table 3, C. perfringens, 4 strains, geometric mean
[21] = Table 3, C. perfringens, 6 strains, geometric mean

SMILES	blood concentrations of BL-P 2013 [1]	MIC [2]	MIC ([2]; Staphylococcus aureus) [µg/mL]	MIC [7] [µg/mL]	MIC [9, 15] [µg/mL]	MIC [9, 16] [µg/mL]	MIC [9, 17] [µg/mL]	MIC [9, 18] [µg/mL]	MIC [9, 19] [µg/mL]	MIC [9, 20] [µg/mL]	MIC [9, 21] [µg/mL]	MIC [11] [µg/mL]	other results
CC(C)(C)C(=O)OCOC(=O)[C@@H]1N2C(=O)C[C@H]2S(=O)(=O)[C@@]1(C)CCl	Operative blood concentrations												
C[C@]1(CCl)[C@H](C(=O)OC2OC(=O)c3ccccc32)N2C(=O)C[C@H]2S1(=O)=O (stereo partly shown)	Operative blood concentrations												
C[C@]1(CCl)[C@H](C(=O)O)N2C(=O)C[C@H]2S1(=O)=O [BL-P 2013]	Operative blood concentrations	73 µg/mL and 96 µg/mL and 85 µg/mL	100 (≈ 374 µM)	> 125	> 125	89	> 120	> 32	> 32	27 (≈ 101 µM)	> 32	> 125	MIC [3]: > 125 µg/mL; MIC [4]: > 125 µg/mL; MIC ([5]; Citrobacter freundii): > 125 µg/mL; MIC [6]: > 125 µg/mL; MIC ([8]; Bacteroides fragilis): 21 µg/mL (≈ 78.4 µM); MIC [10]: > 125 µg/mL; MIC [12]: > 125 µg/mL; MIC [13]: > 125 µg/mL
CC1(C)[C@H](C(=O)O)N2C(=O)C[C@H]2S1(=O)=O [CP-45,899, Penicillanic acid-1,1-dioxide]													synergism with ampicillin against B. fragilis ([14]; Fass, Abstract No. 605, 1980): highly synergistic
CC(C)(O/N=C(\C(=O)N[C@@H]1C(=O)N2C(C(=O)[O-])=C(C[n+]3ccccc3)CS[C@H]12)c1csc(N)n1)C(=O)O [Ceftazidime, reference compound]		8.6 µg/mL and 9.7 µg/mL	8 (≈ 14.6 µM)	8 (≈ 14.6 µM)	0.04	0.7	3.3	2 (≈ 3.66 µM)	5.7 (≈ 10.4 µM)	0.11 (≈ 0.201 µM)	0.1 (≈ 0.183 µM)	0.063 (≈ 0.115 µM)	MIC [5]: 63 µg/mL (≈ 115 µM); susceptibility of Bacteroides fragilis strains [8]: resistant; activity against B. fragilis ([14]; Wise et al. 1980): low activity
